# Key:
# [1] = target: μ-opioid receptor (CHO hMOR) (Homo sapiens, UniProt P35372); type: binding
# [2] = target: κ-opioid receptor (CHO hKOR) (Homo sapiens, UniProt P41145); type: binding
# [3] = target: μ-opioid receptor (hMOR-CHO) (Homo sapiens, UniProt P35372); experiment: biochemical; type: biochemical
# [4] = target: κ-opioid receptor (hKOR-CHO) (Homo sapiens, UniProt P41145); experiment: biochemical; type: biochemical
# [5] = target: δ-opioid receptor (CHO hDOR) (Homo sapiens, UniProt P41143); experiment: Opioid receptor binding assay, [3H]DADLE displacement in hDOR-CHO cell membranes; settings: selectivity μ over δ, from Ki
# Chain of δ-opioid receptor (CHO hDOR) (P41143 whole entry): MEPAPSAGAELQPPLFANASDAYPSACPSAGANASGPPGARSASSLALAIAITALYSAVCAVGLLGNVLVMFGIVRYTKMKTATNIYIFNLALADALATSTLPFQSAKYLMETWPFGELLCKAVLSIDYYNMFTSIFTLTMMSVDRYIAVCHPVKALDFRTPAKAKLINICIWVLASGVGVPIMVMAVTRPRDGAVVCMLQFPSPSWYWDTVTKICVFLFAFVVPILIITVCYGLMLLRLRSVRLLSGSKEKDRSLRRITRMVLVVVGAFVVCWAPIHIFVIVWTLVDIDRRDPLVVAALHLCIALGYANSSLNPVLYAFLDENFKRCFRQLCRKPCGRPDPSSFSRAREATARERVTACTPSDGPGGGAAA
# Chain of μ-opioid receptor (hMOR-CHO) (P35372 whole entry): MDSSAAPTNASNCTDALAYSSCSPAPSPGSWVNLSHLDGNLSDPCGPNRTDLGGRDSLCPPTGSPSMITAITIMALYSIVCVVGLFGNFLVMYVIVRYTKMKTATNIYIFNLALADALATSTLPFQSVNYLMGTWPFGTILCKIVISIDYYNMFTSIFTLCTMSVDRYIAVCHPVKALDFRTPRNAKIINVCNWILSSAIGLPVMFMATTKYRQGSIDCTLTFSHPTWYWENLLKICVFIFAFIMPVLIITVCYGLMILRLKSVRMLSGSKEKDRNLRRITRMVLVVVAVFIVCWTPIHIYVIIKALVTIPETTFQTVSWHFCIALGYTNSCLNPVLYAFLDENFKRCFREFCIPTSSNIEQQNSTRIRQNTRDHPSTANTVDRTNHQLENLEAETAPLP
# Chain of κ-opioid receptor (hKOR-CHO) (P41145 whole entry): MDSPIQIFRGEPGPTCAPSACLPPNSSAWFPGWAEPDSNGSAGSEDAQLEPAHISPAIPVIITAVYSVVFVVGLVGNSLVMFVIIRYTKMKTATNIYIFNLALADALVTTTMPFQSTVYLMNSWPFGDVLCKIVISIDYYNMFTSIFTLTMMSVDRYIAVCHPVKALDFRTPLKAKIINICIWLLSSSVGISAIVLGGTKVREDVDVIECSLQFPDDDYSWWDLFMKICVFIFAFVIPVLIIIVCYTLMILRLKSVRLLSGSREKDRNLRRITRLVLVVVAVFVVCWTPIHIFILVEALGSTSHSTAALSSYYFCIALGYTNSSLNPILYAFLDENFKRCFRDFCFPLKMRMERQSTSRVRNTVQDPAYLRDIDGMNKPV
# Chain of μ-opioid receptor (CHO hMOR) (P35372 whole entry): as the sequence (P35372 whole entry) above
# Chain of κ-opioid receptor (CHO hKOR) (P41145 whole entry): as the sequence (P41145 whole entry) above
smiles,measurement,setting,value
"Oc1cccc2c1O[C@@H]1CN(CCc3ccccc3)[C@@H]3CCC[C@]21C3 (relative stereo) [Cmpd 12, (3R*,6aS*,11aS*)-2-Phenethyl-2,3,4,5,6,11a-hexahydro-1H -3,6a-methanobenzofuro[2,3-c]azocin-10-ol]",μ affinity relative to morphine,[1],two to three times the affinity of morphine
same,fold less affinity for κ-receptors than for the μ-receptor,[2],about 50 fold
same,Kb,[3],0.71 ± 0.09 nM
same,potency as μ-opioid antagonist relative to naloxone,[3],more than three times as potent as naloxone
same,Kb,[4],1.79 ± 0.51 nM
same,κ-opioid antagonist potency relative to norBNI,[4],one tenth the potency of norBNI
same,fold less affinity for δ-receptors than for the μ-receptor,[5],about 1200 fold

# Source: PMC3115714 (Bioorganic & medicinal chemistry, 2011)
